Where two headings read alike, the source gives them in different places. Marks after values point to notes of the source that are not given here.
Legend:
[1] = tested on: Crj: CD(SD)IGS rats; details: rat, in vivo
Procedure: The following 10 kinds of commercially available drugs were examined as the test compounds for a potential of inducing PLsis by histopathological examination and peripheral blood lymphocyte testing.
The following experiments were performed using the prematurely autopsied animals.
The high-dose dosing suspension was diluted about 3 fold and 10 fold with dispersant/solvent to prepare intermediate- and low-dose dosing suspensions. […] [For LD50, the Summary Basis of Approval (FDA) for each drug was referenced to.]
The animals were examined for mortality, general conditions, body weight, food consumption and the like using PM4800 (Mettler) and EB3200D (Shimadzu Corporation).

[2] = tested on: Crj: CD(SD)IGS rats; test: Urinary PAG/hippuric acid ratio by 1H NMR in rats
Procedure: During the urine pooling, the collecting vessels were kept in an ice-cooled condition. After the urine collection, the urine was centrifuged at 1500×g for 10 minutes, and not less than 1 mL of the supernatant was collected and stored under freezing (below −70° C.) in a microtube in an ultralow-temperature freezer until the measurement. For the negative control group, 24-hour pooled urine was collected under ice cooling; after the urine collection, the urine was stored at −30° C. until the measurement.

[3] = tested on: male cynomolgus monkeys; details: cynomolgus monkey, in vivo
Procedure: Amiodarone and perhexiline were purchased from SIGMA Company.
Subsequently, the animals were allocated to four groups (5 animals in total) comprising 2 animals in the control group and 1 male in each treatment group, respectively.
The high-dose dosing suspension was diluted with the dispersant/solvent to prepare a low-dose dosing suspension.
After completion of the administration, livers, kidneys, hearts, spleens, lungs, mesenteric lymph nodes, eyeballs, testes and brains were collected from all animals, and examined for histopathological changes by conventional method of optical microscopy. Additionally, blood samples were collected in the pre-dosing period, on the first day of administration, and on days 2 and 6 of treatment period, blood smear specimens were prepared, and vacuolated lymphocyte ratios were determined.

[4] = rat urine, 100 mg/kg/day by gavage, 3 days, mean n = 3-4
[5] = rat urine, 300 mg/kg/day by gavage, 3 days, mean n = 3-4
[6] = rat urine, 1000 mg/kg/day by gavage, 3 days, mean n = 3-4
[7] = rat 24-hour pooled urine, 1 mg/kg/day by gavage, 4 days, negative control drug, mean n = 2-4
[8] = rat 24-hour pooled urine, 3 mg/kg/day by gavage, 4 days, negative control drug, mean n = 2-4

| SMILES | Histopathological changes (PLsis): Liver ([1]; 100 mg/kg/day) | Histopathological changes (PLsis): Lung ([1]; 100 mg/kg/day) | Histopathological changes (PLsis): Lymph node ([1]; 100 mg/kg/day) | Histopathological changes (PLsis): Others ([1]; 100 mg/kg/day) | Histopathological changes (PLsis): Spleen ([1]; 100 mg/kg/day) | Histopathological changes (PLsis): Liver ([1]; 300 mg/kg/day) | Histopathological changes (PLsis): Lung ([1]; 300 mg/kg/day) | Histopathological changes (PLsis): Lymph node ([1]; 300 mg/kg/day) | Histopathological changes (PLsis): Others ([1]; 300 mg/kg/day) | Histopathological changes (PLsis): Spleen ([1]; 300 mg/kg/day) | Histopathological changes (PLsis): Liver ([1]; 1000 mg/kg/day) | Histopathological changes (PLsis): Lung ([1]; 1000 mg/kg/day) | Histopathological changes (PLsis): Lymph node ([1]; 1000 mg/kg/day) | Histopathological changes (PLsis): Others ([1]; 1000 mg/kg/day) | Histopathological changes (PLsis): Spleen ([1]; 1000 mg/kg/day) | PAG + hippuric acid/creatinine [2, 4] | PAG/creatinine (first term of PAG + hippuric acid) [2, 4] | hippuric acid/creatinine (second term of PAG + hippuric acid) [2, 4] | PAG + hippuric acid/creatinine [2, 5] | PAG/creatinine (first term of PAG + hippuric acid) [2, 5] | other results |
| --- | --- | --- | --- | --- | --- | --- | --- | --- | --- | --- | --- | --- | --- | --- | --- | --- | --- | --- | --- | --- | --- |
| CC/C(=C(\c1ccccc1)c1ccc(OCCN(C)C)cc1)c1ccccc1 [Tamoxifen, tamoxifen] | − | + | + | − | − | + | + | + | − | − | + | + | + | − | − | 1.34 | 0.31 | 1.02 | 1.16 | 0.63 | hippuric acid/creatinine (second term of PAG + hippuric acid) [2, 5]: 0.53; PAG + hippuric acid/creatinine [2, 6]: 1.58; PAG/creatinine (first term of PAG + hippuric acid) [2, 6]: 0.91; hippuric acid/creatinine (second term of PAG + hippuric acid) [2, 6]: 0.67 |
| CCCCc1oc2ccccc2c1C(=O)c1cc(I)c(OCCN(CC)CC)c(I)c1 [Amiodarone] | − | − | − | − | − | − | + | + | − | − | − | + | + | − | + |  |  |  |  |  | induction of PLsis/steatosis ([3]; 60 mg/kg): not observed; histopathological changes in any target organ ([3]; 300 mg/kg): observed |
| CN(C)CCCN1c2ccccc2CCc2ccccc21 [Imipramine, imipramine] |  |  |  |  |  |  |  |  |  |  |  |  |  |  |  | 1.21 | 0.34 | 0.87 | 0.71* | 0.40 | hippuric acid/creatinine (second term of PAG + hippuric acid) [2, 5]: 0.31 |
| O=C(Nc1c(Cl)cncc1Cl)c1ccc(OC(F)F)c(OCC2CC2)c1 [Roflumilast, roflumilast] |  |  |  |  |  |  |  |  |  |  |  |  |  |  |  |  |  |  |  |  | Histopathological changes (PLsis): Liver ([1]; 1 mg/kg/day): −; Histopathological changes (PLsis): Lung ([1]; 1 mg/kg/day): −; Histopathological changes (PLsis): Lymph node ([1]; 1 mg/kg/day): −; Histopathological changes (PLsis): Others ([1]; 1 mg/kg/day): −; Histopathological changes (PLsis): Spleen ([1]; 1 mg/kg/day): −; Histopathological changes (PLsis): Liver ([1]; 3 mg/kg/day): −; Histopathological changes (PLsis): Lung ([1]; 3 mg/kg/day): −; Histopathological changes (PLsis): Lymph node ([1]; 3 mg/kg/day): −; Histopathological changes (PLsis): Others ([1]; 3 mg/kg/day): −; Histopathological changes (PLsis): Spleen ([1]; 3 mg/kg/day): −; PAG + hippuric acid/creatinine [2, 7]: 1.39; PAG/PAG + hippuric acid [2, 7]: 10.79%; PAG/creatinine (first term of PAG + hippuric acid) [2, 7]: 0.15; PAG/hippuric acid [2, 7]: 12.09%; hippuric acid/creatinine (second term of PAG + hippuric acid) [2, 7]: 1.24; PAG + hippuric acid/creatinine [2, 8]: 1.39; PAG/PAG + hippuric acid [2, 8]: 15.11%; PAG/creatinine (first term of PAG + hippuric acid) [2, 8]: 0.21; PAG/hippuric acid [2, 8]: 15.41%; hippuric acid/creatinine (second term of PAG + hippuric acid) [2, 8]: 1.18 |
